The target of this test is MAPKAP-K2 (Homo sapiens, UniProt P49137). In words: MAPKAP-Kinase 2 Assay (33P-ATP peptide phosphorylation, filter plate). The test is classed as biochemical. More on the design: key: +: active; ++: more active; +++: very active. Particulars: assays conducted at typically 1-100 μM. The method, then: MAPKAP-Kinase 2 Assay [Compound Preparation]
Sequence of MAPKAP-K2 (P49137 whole entry): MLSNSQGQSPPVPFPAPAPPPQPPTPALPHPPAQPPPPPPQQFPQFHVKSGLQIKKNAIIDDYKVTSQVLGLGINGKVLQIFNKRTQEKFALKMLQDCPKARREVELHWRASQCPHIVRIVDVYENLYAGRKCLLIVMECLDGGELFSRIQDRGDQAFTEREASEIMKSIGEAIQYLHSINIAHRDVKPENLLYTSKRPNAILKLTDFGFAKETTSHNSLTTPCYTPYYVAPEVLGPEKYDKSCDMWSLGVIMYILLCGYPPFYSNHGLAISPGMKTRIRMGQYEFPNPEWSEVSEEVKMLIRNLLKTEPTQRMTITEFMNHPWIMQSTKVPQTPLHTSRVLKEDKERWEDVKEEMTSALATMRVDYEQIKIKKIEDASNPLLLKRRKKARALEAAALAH
Compounds are dissolved in DMSO at a concentration of 3 mM and stored in aliquots at −20° C. Compounds in DMSO from these stock aliquots are diluted in 30% DMSO to produce initial working stock solutions of 1 mM and 3 mM. Both of these stock solutions are then subjected to 1:10 serial dilutions in 30% DMSO in order to prepare 3000, 1000, 300, 100, 30, 10, 3, 1, 0.1, 0.01 μM stock solutions. 5 μl of each stock solution is used per 50 μl reaction to give final assay concentrations of 300, 100, 30, 10, 3, 1, 0.3, 0.1, 0.01, 0.001 μM.
The kinase reaction is conducted in a round-bottomed polypropylene 96-well plate. MAPKAP-K2 is diluted to 25 mU/μl in diluent buffer (50 mM Tris/HCl. pH7.5, 0.1 mM EGTA, 0.1% (v/v) β-mercaptoethanol, 1 mg/ml BSA). 5 μl compound or 30% DMSO is added to each well followed by 25 μl substrate cocktail (10 μM ATP, 30 μM peptide (KKLNRTLSVA), 0.5 μCi ^33P-γ-ATP in 50 mM Tris pH7.5, 0.1 mM EGTA, 10 mM Mg-acetate, 0.1% BME). The reaction is initiated with the addition of 20 μl enzyme solution per well or 20 μl diluent buffer without enzyme. The plate is shaken for 10 sec and then left at room temperature for 30 min. The reaction is terminated with 50 μl 150 mM phosphoric acid. 90 μl of the reaction mixture is then transferred into a 96-well P81 filter plate (Millipore) and incubated at room temperature for 5 min. The filter plate is then washed 4 times with 200 μl 75 mM phosphoric acid per well on a plate vacuum manifold (Millipore) and dried in an oven for 2-3 h. Packard MicroScint ‘0’ (30 μl) is then added to each well, the plate is mixed for 30 min and subjected to liquid scintillation counting on a Packard TopCount.
[Interpretation] %Control=(X−B)/(Tot−B)×100 %Inhibition=100−% Control X=cpm of the test compound wells B=cpm of wells without enzyme Tot=cpm of wells with DMSO vehicle only
Consider `NC1CCC(Nc2cc(NCc3cccc(I)c3)n3nccc3n2)CC1` (stereo not shown) [Compound 53], for which the MAPKAP-K2 activity entry is on record as “++”. Regarding `N[C@H]1CC[C@H](Nc2cc(Nc3ccc(Cl)cc3Cl)n3nccc3n2)CC1` [Compound 60], the MAPKAP-K2 activity entry is on record as “+++”.

As to `NC1CCCN(c2cc(Nc3ccc(F)c(Cl)c3)n3nccc3n2)C1` (stereo not shown) [Compound 72], the MAPKAP-K2 activity result is “++”.

On to `CC(=O)NC1CCC(Nc2cc(Nc3ccc(F)c(Cl)c3)n3nccc3n2)CC1` (stereo not shown) [Compound 25], for which the MAPKAP-K2 activity result is listed as “+”.

For the molecule `COc1ccc(Nc2cc(NC3CCC(N)CC3)nc3ccnn23)c(F)c1` (stereo not shown) [Compound 112], the MAPKAP-K2 activity entry is given as “+++”.

In the case of `CN(C)c1cccc(Nc2cc(N[C@H]3CC[C@H](N)CC3)nc3ccnn23)c1` [Compound 19], the MAPKAP-K2 activity entry was “+++”. The same measure for `N[C@H]1CC[C@H](Nc2cc(Nc3cccc(OC(F)(F)F)c3)n3nccc3n2)CC1` [Compound 63]: “+++”; for `N[C@H]1CC[C@H](Nc2cc(NCc3ccccc3Cl)n3nccc3n2)CC1` [Compound 71]: “++”; for `COc1cccc(Nc2cc(NC3CCCNC3)nc3ccnn23)c1` (stereo not shown) [Compound 97]: “+++”.

Consider `NC1CCC(Nc2cc(Nc3ccc(C(F)(F)F)cc3Cl)n3nccc3n2)CC1` (stereo not shown) [Compound 91], for which the MAPKAP-K2 activity result is on record as “+++”.

Consider `N#Cc1cccc(Nc2cc(NC3CCC(N)CC3)nc3ccnn23)c1` (stereo not shown) [Compound 32], for which the MAPKAP-K2 activity entry is “+++”. The result for `NC1CCCC(Nc2cc(Nc3ccc(F)c(Cl)c3)n3nccc3n2)C1` (stereo not shown) [Compound 61] reads “+”. The same measure for `N[C@H]1CC[C@H](Nc2cc(NCc3cccc(Cl)c3)n3nccc3n2)CC1` [Compound 8]: “++”; for `CC(C)NC1CCC(Nc2cc(Nc3ccc(F)c(Cl)c3)n3nccc3n2)CC1` (stereo not shown) [Compound 135]: “++”; for `N[C@H]1CC[C@H](Nc2cc(Nc3cccc(Cl)c3Cl)n3nccc3n2)CC1` [Compound 67]: “+++”. The result for `CN1CCC(N[C@H]2CC[C@H](Nc3cc(Nc4ccc(F)c(Cl)c4)n4nccc4n3)CC2)CC1` [Compound 136] reads “+++”.

Turning to `NC1CCC(Nc2cc(Nc3ccc(OC(F)(F)F)cc3Cl)n3nccc3n2)CC1` (stereo not shown) [Compound 107], the MAPKAP-K2 activity entry was “+++”. As for `CCOc1ccc(Nc2cc(NC3CCCNC3)nc3ccnn23)cc1` (stereo not shown) [Compound 139], the MAPKAP-K2 activity entry was “+++”. The same measure for `N[C@H]1CC[C@H](Nc2cc(Nc3ccc(F)cc3)n3nccc3n2)CC1` [Compound 16]: “+++”. The same measure for `CCCCCNC1CCC(Nc2cc(Nc3ccc(F)c(Cl)c3)n3nccc3n2)CC1` (stereo not shown) [Compound 125]: “++”. The same measure for `Cc1ccc(Nc2cc(N[C@H]3CC[C@H](N)CC3)nc3ccnn23)cc1Cl` [Compound 6]: “+++”; for `C=CCNc1cc(NC2CCC(N)CC2)nc2ccnn12` (stereo not shown) [Compound 48]: “++”; for `NC1CCC(Nc2cc(Nc3cccc(I)c3)n3nccc3n2)CC1` (stereo not shown) [Compound 40]: “+++”. `COc1ccccc1Nc1cc(NC2CCCNC2)nc2ccnn12` (stereo not shown) [Compound 96]: the MAPKAP-K2 activity entry is “++”. The same measure for `N#C/N=C(\N)NC1CCC(Nc2cc(Nc3ccc(F)c(Cl)c3)n3nccc3n2)CC1` (stereo not shown) [Compound 79]: “++”; for `CCCc1ccc(Nc2cc(NC3CCC(N)CC3)nc3ccnn23)cc1` (stereo not shown) [Compound 36]: “+++”. Take `NC1CCC(Nc2cc(Nc3ccc(OCc4ccccc4)cc3)n3nccc3n2)CC1` (stereo not shown) [Compound 52]: the MAPKAP-K2 activity result is “+++”. The same measure for `NCCNc1cc(Nc2ccc(F)c(Cl)c2)n2nccc2n1` [Compound 116]: “+”; for `NC1CCC(Nc2cc(NCc3ccc(Cl)c(Cl)c3)n3nccc3n2)CC1` (stereo not shown) [Compound 39]: “++”. The same measure for `CN1CCC(Nc2cc(Nc3ccc(F)c(Cl)c3)n3nccc3n2)CC1` [Compound 56]: “++”. The result for `Cc1ccc(Nc2cc(NC3CCC(N)CC3)nc3ccnn23)cc1C` (stereo not shown) [Compound 43] reads “+++”; that for `Fc1ccc(Nc2cc(N3CCNCC3)nc3ccnn23)cc1Cl` [Compound 81], “+”. As to `N[C@H]1CC[C@H](Nc2cc(NCc3ccc(F)c(Cl)c3)n3nccc3n2)CC1` [Compound 1], the MAPKAP-K2 activity result was “++”. Consider `CC(Nc1cc(N[C@H]2CC[C@H](N)CC2)nc2ccnn12)c1ccccc1` (stereo partly shown) [Compound 23], for which the MAPKAP-K2 activity entry was “+”. The same measure for `O=C(NC1CCC(Nc2cc(Nc3ccc(F)c(Cl)c3)n3nccc3n2)CC1)c1ccccc1` (stereo not shown) [Compound 28]: “+”; for `COc1cccc(Nc2cc(N[C@H]3CC[C@H](N)CC3)nc3ccnn23)c1` [Compound 62]: “+++”; for `N[C@H]1CC[C@H](Nc2cc(Nc3ccc(Oc4ccccc4)cc3)n3nccc3n2)CC1` [Compound 21]: “+++”. The result for `CCC(CC)CNC1CCC(Nc2cc(Nc3ccc(F)c(Cl)c3)n3nccc3n2)CC1` (stereo not shown) [Compound 130] reads “+”. As for `CCOc1ccccc1Nc1cc(NC2CCC(N)CC2)nc2ccnn12` (stereo not shown) [Compound 54], the MAPKAP-K2 activity entry is “++”. The result for `NC1CCC(Nc2cc(Nc3ccccc3I)n3nccc3n2)CC1` (stereo not shown) [Compound 101] reads “+++”. The result for `N[C@H]1CC[C@H](Nc2cc(NCc3ccccn3)n3nccc3n2)CC1` [Compound 90] reads “++”.

As to `N[C@H]1CC[C@H](Nc2cc(Nc3ccccc3Cl)n3nccc3n2)CC1` [Compound 13], the MAPKAP-K2 activity result is given as “+++”. The same measure for `Cc1ccsc1CNc1cc(N[C@H]2CC[C@H](N)CC2)nc2ccnn12` [Compound 7]: “++”. The result for `CS(=O)(=O)NC1CCC(Nc2cc(Nc3ccc(F)c(Cl)c3)n3nccc3n2)CC1` (stereo not shown) [Compound 27] reads “+”. The result for `CCCCOc1ccc(Nc2cc(NC3CCC(N)CC3)nc3ccnn23)cc1` (stereo not shown) [Compound 104] reads “+++”; that for `c1ccc(COc2cccc(Nc3cc(NC4CCCNC4)nc4ccnn34)c2)cc1` (stereo not shown) [Compound 98], “+++”; that for `NC1CCN(c2cc(Nc3ccc(F)c(Cl)c3)n3nccc3n2)C1` (stereo not shown) [Compound 82], “+”.

Turning to `Ic1ccc(Nc2cc(NC3CCCNC3)nc3ccnn23)cc1` (stereo not shown) [Compound 106], the MAPKAP-K2 activity entry is listed as “+++”. The result for `NC1CCC(Nc2cc(Nc3ccccc3Br)n3nccc3n2)CC1` (stereo not shown) [Compound 102] reads “+++”; that for `N[C@H]1CC[C@H](Nc2cc(Nc3cc(Cl)ccc3Cl)n3nccc3n2)CC1` [Compound 68], “+++”.

For `NC1CCC(Nc2cc(Nc3cccc(Oc4ccccc4)c3)n3nccc3n2)CC1` (stereo not shown) [Compound 46], the MAPKAP-K2 activity entry is listed as “+++”. As to `Cc1ccccc1Nc1cc(N[C@H]2CC[C@H](N)CC2)nc2ccnn12` [Compound 9], the MAPKAP-K2 activity entry was “+++”. Regarding `CSc1ccc(Nc2cc(N[C@H]3CC[C@H](N)CC3)nc3ccnn23)cc1` [Compound 26], the MAPKAP-K2 activity entry is reported as “+++”.

`C#CCNc1cc(NC2CCC(N)CC2)nc2ccnn12` (stereo not shown) [Compound 59]: the MAPKAP-K2 activity entry is on record as “+++”. The same measure for `CC(C)c1ccc(Nc2cc(NC3CCC(N)CC3)nc3ccnn23)cc1` (stereo not shown) [Compound 37]: “+++”.

The values are drawn from patent US20060205743A1, “Protein kinase inhibitors” (priority 2003, published 2006).
